Values belong to the compound of their own block, whether it stands above or below them. Peptide text beside a SMILES is read from it. * marks the point of attachment. FITC = O=C1OC2(c3ccc(O)cc3Oc3cc(O)ccc32)c2ccc(NC(=S)*)cc21; Biotin = O=C1N[C@H]2[C@H](CS[C@H]2CCCCC(=O)*)N1
Legend:
[1] = biological target: T1, Na(+)/H(+) exchange regulatory cofactor NHE-RF1 [133-300] (Homo sapiens, UniProt O14745); experiment: Fluorescent Polarization Competition Assay; settings: 23 °C
T1 construct: 133-300
T1 sequence (O14745 whole entry): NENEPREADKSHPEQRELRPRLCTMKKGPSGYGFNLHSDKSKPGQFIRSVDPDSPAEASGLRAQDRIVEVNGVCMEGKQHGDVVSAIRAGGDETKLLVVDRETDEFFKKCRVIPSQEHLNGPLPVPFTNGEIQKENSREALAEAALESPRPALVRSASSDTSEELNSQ
Description: (§1) Competition assays were performed in FP buffer (DTT was avoided for Cys-PTHRct-9) containing fixed concentrations of both the fluorescently labeled peptide andprotein following the protocol described by Madden and coworkers. [Cushing et al., Biochemistry, 47:10084-10098] This mixture was equilibrated for 20 min in the dark at room temperature. The unlabeled competitor peptide was dissolved and serially diluted in storage buffer supplemented with 5% DMSO (Sigma). Each serial dilution was aliquoted at 1/10 final volume, to which was added 9/10 volume of the protein/peptide mixture. All FP assays were performed in a 96-well format. Polarized fluorescence intensities were measured at 23 °C with a PerkinElmer Wallac Victor3 multilabel counter using excitation and emission wavelengths of 485 and 535 nm, respectively, for the FITC-labeled peptide.

[2] = biological target: T2, Na(+)/H(+) exchange regulatory cofactor NHE-RF1 [1-140] (Homo sapiens, UniProt O14745); experiment: Surface Plasmon Resonance (SPR); settings: pH 7.4; 15 °C
T2 construct: 1-140
T2 sequence (O14745 whole entry): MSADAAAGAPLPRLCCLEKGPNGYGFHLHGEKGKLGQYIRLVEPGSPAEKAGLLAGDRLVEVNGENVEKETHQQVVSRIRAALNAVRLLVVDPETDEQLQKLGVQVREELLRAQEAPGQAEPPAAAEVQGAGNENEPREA
Description: (§2) SPR measurements were performed with a Biacore X100 instrument (GE Healthcare Life Sciences, Piscataway, NJ) at 15.0 °C. The biotinylated PTHRct-22 ligand was immobilized on an SA streptavidin sensor chip (GE Healthcare Life Sciences) usingthe manufacturer's protocol until the desired response target was reached. PDZ1 or PDZ2 analyte, dissolved in 10 mM HEPES buffer (pH 7.4), 150 mM NaCl, 3 mM EDTA, and 0.005% surfactant polysorbate 20, was injected on the PTHRct-coated sensor surface at increasing concentrations from 10 nM to 100 μM. At the end of each ligand injection−dissociation cycle, the sensor chip was regenerated with 4.0 M MgCl2, 50 mM triethylamine (pH 9.15), and HBS-EP buffer.

[3] = biological target: T1, Na(+)/H(+) exchange regulatory cofactor NHE-RF1 [133-300]; experiment: Surface Plasmon Resonance (SPR); settings: pH 7.4; 15 °C
Description: as §2

[4] = biological target: T2, Na(+)/H(+) exchange regulatory cofactor NHE-RF1 [1-140]; experiment: Fluorescent Polarization Competition Assay; settings: 23 °C
Description: as §1

[5] = biological target: T2, Na(+)/H(+) exchange regulatory cofactor NHE-RF1 [1-140]; experiment: Isothermal Titration Calorimetry (ITC); settings: pH 8; 25 °C
Description: (§3) ITC measurements were conducted on a Microcal iTC200 (Malvern Instruments) in buffer consisting of 25 mM Tris (pH 8.0) and 100 mM NaCl. Proteins were exchanged into ITC buffer by gel filtration using a Superdex200 column. Wild-type modified synthetic peptides were purchased from Genscript and are described in Results. One millimolar PTHR peptides (wild-type and mutant variants) were titrated into 100 μM individual proteins, PDZ1 or PDZ2, at 25 °C.

[6] = biological target: T1, Na(+)/H(+) exchange regulatory cofactor NHE-RF1 [133-300]; experiment: Isothermal Titration Calorimetry (ITC); settings: pH 8; 25 °C
Description: as §3

Ki ([1]; pH 7.4): 7 µM | Kd [2]: 16 µM | Kd [3]: 11.5 µM
Compound: CSCC[C@H](NC(=O)[C@@H](NC(=O)[C@@H](NC(=O)[C@H](CCC(=O)O)NC(=O)[C@H](Cc1c[nH]c2ccccc12)NC(=O)[C@H](CCC(=O)O)NC(=O)[C@H](CCC(=O)O)NC(=O)[C@H](CCC(N)=O)NC(=O)[C@H](CC(C)C)NC(=O)[C@H](CC(C)C)NC(=O)[C@H](C)NC(=O)[C@@H]1CCCN1C(=O)[C@@H]1CCCN1C(=O)[C@H](CCCNC(=N)N)NC(=O)[C@H](CCC(=O)O)NC(=O)[C@@H]1CCCN1C(=O)[C@H](CS)NC(=O)[C@H](CO)NC(=O)[C@H](C)NC(=O)[C@H](CCC(=O)O)NC(=O)[C@H](CCC(=O)O)NC(=O)[C@H](CC(=O)O)NC(=O)CCCC[C@@H]1SC[C@@H]2NC(=O)N[C@@H]21)[C@@H](C)O)C(C)C)C(=O)O (Biotin-DEEASCPERPPALLQEEWETVM-OH)

Ki ([4]; pH 7.4): 1.4 µM
Compound: H-LQEEWETVM-OH [LQEEWETVM]

Kd [5]: 11.7 µM | Kd [6]: 9.7 µM
Compound: H-QEEWETVM-OH [QEEWETVM]

Kd ([4]; pH 7): 1 µM | Kd ([1]; pH 7): 0.6 µM
Compound: CSCC[C@H](NC(=O)[C@@H](NC(=O)[C@@H](NC(=O)[C@H](CCC(=O)O)NC(=O)[C@H](Cc1c[nH]c2ccccc12)NC(=O)[C@H](CCC(=O)O)NC(=O)[C@H](CCC(=O)O)NC(=O)[C@H](CCC(N)=O)NC(=O)[C@H](CC(C)C)NC(=S)Nc1ccc2c(c1)C(=O)OC21c2ccc(O)cc2Oc2cc(O)ccc21)[C@@H](C)O)C(C)C)C(=O)O [FITC-LQEEWETVM] ({FITC}-LQEEWETVM-OH)
